In patent US20230218573A1, “INDOLE COMPOUNDS FOR THE TREATMENT OF NEURODEGENERATIVE DISEASES” (GALYAN BIO, INC., priority 2020, published 2023):

System: Exon1 Q46
Assay: Circular dichroism of Exon1 Q46, predominantly α-helical state
Type: biochemical
Conditions: increasing doses
Procedure: Protein samples were diluted with buffer to 7.5 µM prior to Circular Dichroism (CD) measurements. Measurements were conducted at room temperature.
Four spectra at each measurement were taken every 1 nm from 200 to 260 nm, scanning at 50 nm/min with an averaging time of 1 sec. Spectra were obtained from samples in 20 mM phosphate, pH 7.4. Ten scans were averaged for each sample spectrum
Single-wavelength readings at 222 nm were obtained. After subtraction of the Trx contribution, the α-helical content of Httex1 was estimated from its mean residue ellipticity (MREHttex1) at 222 nm. This calculation was conducted as described by Bravo-Arredondo (Bravo-Arredondo, J.M. et al., J Biol Chem. 2018 Dec 21;293(51):19613-19623).
MRE Exon-1 […] and Q46 (Mean Residue Ellipticity) was measured every 1 sec for 300 sec; the 301 readings for each sample were averaged and MRE Trx subtracted. The number of amino acids in each sample to experience a change in helicity was estimated using a previously developed helix-coil transition model, which gave the change in fraction of helicity (ΔfHelix) by the following equation: […]
where MRE Exon1 Q26 or Q46 (MREHttex1 in the formula) describes the helix-coil transition, obtained from the difference between MRE Eon1 Q26 or Q46 at 222 nm of the fusion protein at the given temperature (in our case 37° C.) and the product of MRE Trx at 222 nm at the same temperature and the fraction of residues comprised by Trx in that particular construct, and
In order to calculate an equilibrium of the two states model, percent α-helicity was calculated using the relation of MREHttex1 = 0 and -34700 (deg cm^2 dmol^-1) for 0% and 100% helicity, respectively.
The CD measurements protocol for Compound 101 was the same as outlined above except that from 206 nm - 210 nm and 220 nm - 224 nm, the step size was 0.2 nm, and the bandwidth was 1 nm.

Compound: Cc1[nH]c2ccc(C(=O)NCCN(C(C)C)C(C)C)cc2c1C [Compound 22]
- effect of increasing doses on the predominantly α-helical state of Exon1 Q46: decreases the proportion of a predominantly α-helical state
